Experimental data reported in US9796741B2 (Achillion Pharmaceuticals, Inc., priority 2014, dated 2017).
Where two headings read alike, the source gives them in different places.

Molecular target: Human factor D (Homo sapiens (Human), UniProt P00746)
Assay: Human Factor D Assay
Type: biochemical
How it was run: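 Serum-purified factor D (80 nM final) preincubated 5 min at room temperature with compound in 50 mM Tris, 1M NaCl, pH 7.5. Z-L-Lys-SBzl and DTNB added at 100 μM each; OD405 followed kinetically over 30 min. IC50 by non-linear regression of % inhibition.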

[1] = human factor D 80 nM, substrate Z-L-Lys-SBzl, DTNB

Sequence of Human factor D (P00746 26-253): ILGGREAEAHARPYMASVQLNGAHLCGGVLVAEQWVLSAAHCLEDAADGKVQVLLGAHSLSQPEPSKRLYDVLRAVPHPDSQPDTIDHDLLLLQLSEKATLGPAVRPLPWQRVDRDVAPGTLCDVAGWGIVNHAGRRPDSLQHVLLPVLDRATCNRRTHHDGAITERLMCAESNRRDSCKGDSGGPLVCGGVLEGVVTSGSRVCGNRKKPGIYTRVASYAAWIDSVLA

Structure (SMILES) | IC50 [1] | IC50
CC(=O)c1cn(CC(=O)N2[C@@H]3C[C@@H]3C[C@H]2C(=O)Nc2cccc(-c3ccccc3Cl)c2F)c2ccc(-c3cnc(C)nc3)cc12 [Compound 133, (1R,3S,5R)-2-(2-(3-acetyl-5-(2-methylpyrimidin-5-yl)-1H-indol-1-yl)acetyl)-N-(2′-chloro-2-fluorobiphenyl-3-yl)-2-azabicyclo[3.1.0] hexane-3-carboxamide] | < 1 µM | –
CC(=O)c1cn(CC(=O)N2[C@@H]3C[C@@H]3C[C@H]2C(=O)NCc2cccc(Cl)c2F)c2ccc(-c3cnc(C)nc3)cc12 [Compound 134, (1R,3S,5R)-2-(2-(3-acetyl-5-(2-methylpyrimidin-5-yl)-1H-indol-1-yl)acetyl)-N-(3-chloro-2-fluorobenzyl)-2-azabicyclo[3.1.0] hexane-3-carboxamide] | < 1 µM | –
CC(=O)c1cn(CC(=O)N2C[C@H](F)C[C@H]2C(=O)NCc2cccc(Cl)c2F)c2ccc(-c3cnc(C)nc3)cc12 [Compound 135, (2S,4R)-1-(2-(3-acetyl-5-(2-methylpyrimidin-5-yl)-1H-indol-1-yl)acetyl)-N-(3-chloro-2-fluorobenzyl)-4-fluoropyrrolidine-2-carboxamide] | < 1 µM | –
COc1ncc(-c2ccc3c(c2)c(C(C)=O)cn3CC(=O)N2C[C@H](F)C[C@H]2C(=O)NCc2cccc(Cl)c2F)cn1 [Compound 136, (2S,4R)-1-(2-(3-acetyl-5-(2-methoxypyrimidin-5-yl)-1H-indol-1-yl)acetyl)-N-(3-chloro-2-fluorobenzyl)-4-fluoropyrrolidine-2-carboxamide] | < 1 µM | –
CC(=O)c1cn(CC(=O)N2C[C@H](F)C[C@H]2C(=O)Nc2cccc(Cl)n2)c2ccc(-c3cnc(C)nc3)cc12 [Compound 137, (2S,4R)-1-(2-(3-acetyl-5-(2-methylpyrimidin-5-yl)-1H-indol-1-yl)acetyl)-N-(6-chloropyridin-2-yl)-4-fluoropyrrolidine-2-carboxamide] | < 1 µM | –
CC(=O)Nc1ncc(-c2ccc3c(c2)c(C(C)=O)cn3CC(=O)N2C[C@H](F)C[C@H]2C(=O)Nc2cccc(-c3ccccc3Cl)c2F)cn1 [Compound 138, (2S,4R)-1-(2-(5-(2-acetamidopyrimidin-5-yl)-3-acetyl-1H-indol-1-yl)acetyl)-N-(2′-chloro-2-fluorobiphenyl-3-yl)-4-fluoropyrrolidine-2-carboxamide] | < 1 µM | –
NC(=O)c1nn(CC(=O)N2C[C@H](F)C[C@H]2C(=O)NCc2ccccn2)c2ccc(-c3ccnnc3)cc12 [Compound 139, 1-(2-((2S,4R)-4-fluoro-2-(pyridin-2-ylmethylcarbamoyl)pyrrolidin-1-yl)-2-oxoethyl)-5-(pyridazin-4-yl)-1H-indazole-3-carboxamide] | – | 1 to 10 µM
CC(=O)c1cn(CC(=O)N2C[C@H](F)C[C@H]2C(=O)NC2CCCN(c3cnn(C)c3)C2)c2ccc(-c3ccnnc3)cc12 (stereo partly drawn) [Compound 140, (2S,4R)-1-(2-(3-acetyl-5-(pyridazin-4-yl)-1H-indol-1-yl)acetyl)-4-fluoro-N-(1-(1-methyl-1H-pyrazol-4-yl)piperidin-3-yl)pyrrolidine-2-carboxamide] | – | 1 to 10 µM
Cn1cc(N2CCCC(NC(=O)[C@@H]3C[C@@H](F)CN3C(=O)Cn3nc(C(N)=O)c4cc(-c5ccnnc5)ccc43)C2)cn1 (stereo partly drawn) [Compound 141, 1-(2-((2S,4R)-4-fluoro-2-(1-(1-methyl-1H-pyrazol-4-yl)piperidin-3-ylcarbamoyl)pyrrolidin-1-yl)-2-oxoethyl)-5-(pyridazin-4-yl)-1H-indazole-3-carboxamide] | > 10 µM | –
CC(=O)c1cn(CC(=O)N2C[C@H](F)C[C@H]2C(=O)N[C@@H]2CCC[C@H]2O)c2ccc(-c3ccnnc3)cc12 [Compound 143, (2S,4R)-1-(2-(3-acetyl-5-(pyridazin-4-yl)-1H-indol-1-yl)acetyl)-4-fluoro-N-((1R,2R)-2-hydroxycyclopentyl) pyrrolidine-2-carboxamide] | > 10 µM | –
CC(=O)c1cn(CC(=O)N2C[C@H](F)C[C@H]2C(=O)Nc2cccc(O)n2)c2ccc(-c3ccnnc3)cc12 [Compound 144, (2S,4R)-1-(2-(3-acetyl-5-(pyridazin-4-yl)-1H-indol-1-yl)acetyl)-4-fluoro-N-(6-hydroxypyridin-2-yl)pyrrolidine-2-carboxamide] | > 10 µM | –
NC(=O)c1nn(CC(=O)N2C[C@H](F)C[C@H]2C(=O)N[C@@H]2CCC[C@H]2O)c2ccc(-c3ccnnc3)cc12 [Compound 145, 1-(2-((2S,4R)-4-fluoro-2-((1R,2R)-2-hydroxycyclopentyl-carbamoyl)pyrrolidin-1-yl)-2-oxoethyl)-5-(pyridazin-4-yl)-1H-indazole-3-carboxamide] | > 10 µM | –
NC(=O)c1nn(CC(=O)N2C[C@H](F)C[C@H]2C(=O)Nc2nc(-c3cccc(Cl)c3)ns2)c2ccc(-c3ccnnc3)cc12 [Compound 146, 1-(2-((2S,4R)-2-(3-(3-chlorophenyl)-1,2,4-thiadiazol-5-ylcarbamoyl)-4-fluoropyrrolidin-l-yl)-2-oxoethyl)-5-(pyridazin-4-yl)-1H-indazole-3-carboxamide] | > 10 µM | –
CC(=O)c1cn(CC(=O)N2C[C@H](F)C[C@H]2C(=O)Nc2nc(-c3cccc(Cl)c3)ns2)c2ccc(-c3ccnnc3)cc12 [Compound 147, (2S,4R)-1-(2-(3-acetyl-5-(pyridazin-4-yl)-1H-indol-1-yl)acetyl)-N-(3-(3-chlorophenyl)-1,2,4-thiadiazol-5-yl)-4-fluoropyrrolidine-2-carboxamide] | > 10 µM | –
CC(=O)c1cn(CC(=O)N2C[C@H](F)C[C@H]2C(=O)Nc2cccc(-c3cc(F)c(F)cc3Cl)c2F)c2ccc(-c3cnc(C)nc3)cc12 [Compound 150, (2S,4R)-1-(2-(3-acetyl-5-(2-methylpyrimidin-5-yl)-1H-indol-1-yl)acetyl)-N-(2′-chloro-2,4′,5′-trifluorobiphenyl-3-yl)-4-fluoropyrrolidine-2-carboxamide] | < 1 µM | –
CC(=O)c1cn(CC(=O)N2C[C@H](F)C[C@H]2C(=O)Nc2cccc(-c3ccccc3Cl)c2F)c2ccc(-c3ccc(C)nc3)cc12 [Compound 151, (2S,4R)-1-(2-(3-acetyl-5-(6-methylpyridin-3-yl)-1H-indol-1-yl)acetyl)-N-(2′-chloro-2-fluorobiphenyl-3-yl)-4-fluoropyrrolidine-2-carboxamide] | < 1 µM | –
CC1Oc2cccc(NC(=O)[C@@H]3C[C@@H](F)CN3C(=O)Cn3nc(C(N)=O)c4cc(-c5ccnnc5)ccc43)c2NC1=O (stereo partly drawn) [Compound 152, 1-(2-((2S,4R)-4-fluoro-2-(2-methyl-3-oxo-3,4-dihydro-2H-benzo[b][1,4]oxazin-5-ylcarbamoyl)pyrrolidin-1-yl)-2-oxoethyl)-5-(pyridazin-4-yl)-1H-indazole-3-carboxamide] | > 10 µM | –
CC(=O)c1cn(CC(=O)N2C[C@H](F)C[C@H]2C(=O)Nc2cccc3c2NC(=O)C(C)O3)c2ccc(-c3ccnnc3)cc12 (stereo partly drawn) [Compound 153, (2S,4R)-1-(2-(3-acetyl-5-(pyridazin-4-yl)-1H-indol-1-yl)acetyl)-4-fluoro-N-(2-methyl-3-oxo-3,4-dihydro-2H-benzo[b][1,4]oxazin-5-yl)pyrrolidine-2-carboxamide] | > 10 µM | –
NC(=O)c1nn(CC(=O)N2C[C@H](F)C[C@H]2C(=O)Nc2cc(O)ccn2)c2ccc(-c3ccnnc3)cc12 [Compound 154, 1-(2-((2S,4R)-4-fluoro-2-(4-hydroxypyridin-2-ylcarbamoyl)pyrrolidin-l-yl)-2-oxoethyl)-5-(pyridazin-4-yl)-1H-indazole-3-carboxamide] | > 10 µM | –
Cn1ccc(N2CCC(NC(=O)[C@@H]3C[C@@H](F)CN3C(=O)Cn3nc(C(N)=O)c4cc(-c5ccnnc5)ccc43)C2=O)n1 (stereo partly drawn) [Compound 155, 1-(2-((2S,4R)-4-fluoro-2-(1-(1-methyl-1H-pyrazol-3-yl)-2-oxopyrrolidin-3-ylcarbamoyl)pyrrolidin-1-yl)-2-oxoethyl)-5-(pyridazin-4-yl)-1H-indazole-3-carboxamide] | > 10 µM | –
CC(=O)c1cn(CC(=O)N2C[C@H](F)C[C@H]2C(=O)Nc2c[nH]nc2-c2ccc(Cl)cc2Cl)c2ccc(-c3ccnnc3)cc12 [Compound 156, (2S,4R)-1-(2-(3-acetyl-5-(pyridazin-4-yl)-1H-indol-1-yl)acetyl)-N-(3-(2,4-dichlorophenyl)-1H-pyrazol-4-yl)-4-fluoropyrrolidine-2-carboxamide] | > 10 µM | –
NC(=O)c1nn(CC(=O)N2C[C@H](F)C[C@H]2C(=O)NCc2ccncc2)c2ccc(-c3ccnnc3)cc12 [Compound 157, 1-(2-((2S,4R)-4-fluoro-2-(pyridin-4-ylmethylcarbamoyl)pyrrolidin-1-yl)-2-oxoethyl)-5-(pyridazin-4-yl)-1H-indazole-3-carboxamide] | > 10 µM | –
Cc1cc(NC(=O)[C@@H]2C[C@@H](F)CN2C(=O)Cn2nc(C(N)=O)c3cc(-c4ccnnc4)ccc32)n(-c2ccccc2F)n1 [Compound 158, 1-(2-((2S,4R)-4-fluoro-2-(1-(2-fluorophenyl)-3-methyl-1H-pyrazol-5-ylcarbamoyl)pyrrolidin-1-yl)-2-oxoethyl)-5-(pyridazin-4-yl)-1H-indazole-3-carboxamide] | > 10 µM | –
CC(=O)c1cn(CC(=O)N2C[C@@H](F)C[C@@H]2C(=O)NC2CCCN(c3ccccc3Cl)C2=O)c2ccc(-c3ccnnc3)cc12 (stereo partly drawn) [Compound 161, (2R,4S)-1-(2-(3-acetyl-5-(pyridazin-4-yl)-1H-indol-1-yl)acetyl)-N-(1-(2-chlorophenyl)-2-oxopiperidin-3-yl)-4-fluoropyrrolidine-2-carboxamide] | < 1 µM | –
CC(=O)c1nn(CC(=O)N2C[C@H](F)C[C@H]2C(=O)Nc2cccc(-c3ccccc3Cl)c2F)c2ccc(-c3cnc(C)nc3)cc12 [Compound 163, (2S,4R)-1-(2-(3-acetyl-5-(2-methylpyrimidin-5-yl)-1H-indazol-1-yl)acetyl)-N-(2′-chloro-2-fluorobiphenyl-3-yl)-4-fluoropyrrolidine-2-carboxamide] | < 1 µM | –
